Patent US20210070748A1, “INHIBITORS OF BRUTONS TYROSINE KINASE” (Pharmacyclics LLC, priority 2015, published 2021)

What was measured:
Type in all cases: biochemical
SRC = SRC (Homo sapiens, UniProt P12931); experiment: Inhibition of a panel of kinases, in vitro HotSpot kinase assay: SRC; settings: E compounds, Table 17
Protocol: (§1) The degree of inhibition of a panel of kinases is determined using the in vitro HotSpot kinase assay (purified enzymes, ^33P-ATP, an appropriate substrate and 1 μM ATP).

JAK3 = target: T1, JAK3 (Homo sapiens, UniProt P52333); experiment: Inhibition of a panel of kinases, in vitro HotSpot kinase assay: JAK3; settings: E compounds, Table 17; read-out: IC50 JAK3
T1 sequence (P52333 1-1124): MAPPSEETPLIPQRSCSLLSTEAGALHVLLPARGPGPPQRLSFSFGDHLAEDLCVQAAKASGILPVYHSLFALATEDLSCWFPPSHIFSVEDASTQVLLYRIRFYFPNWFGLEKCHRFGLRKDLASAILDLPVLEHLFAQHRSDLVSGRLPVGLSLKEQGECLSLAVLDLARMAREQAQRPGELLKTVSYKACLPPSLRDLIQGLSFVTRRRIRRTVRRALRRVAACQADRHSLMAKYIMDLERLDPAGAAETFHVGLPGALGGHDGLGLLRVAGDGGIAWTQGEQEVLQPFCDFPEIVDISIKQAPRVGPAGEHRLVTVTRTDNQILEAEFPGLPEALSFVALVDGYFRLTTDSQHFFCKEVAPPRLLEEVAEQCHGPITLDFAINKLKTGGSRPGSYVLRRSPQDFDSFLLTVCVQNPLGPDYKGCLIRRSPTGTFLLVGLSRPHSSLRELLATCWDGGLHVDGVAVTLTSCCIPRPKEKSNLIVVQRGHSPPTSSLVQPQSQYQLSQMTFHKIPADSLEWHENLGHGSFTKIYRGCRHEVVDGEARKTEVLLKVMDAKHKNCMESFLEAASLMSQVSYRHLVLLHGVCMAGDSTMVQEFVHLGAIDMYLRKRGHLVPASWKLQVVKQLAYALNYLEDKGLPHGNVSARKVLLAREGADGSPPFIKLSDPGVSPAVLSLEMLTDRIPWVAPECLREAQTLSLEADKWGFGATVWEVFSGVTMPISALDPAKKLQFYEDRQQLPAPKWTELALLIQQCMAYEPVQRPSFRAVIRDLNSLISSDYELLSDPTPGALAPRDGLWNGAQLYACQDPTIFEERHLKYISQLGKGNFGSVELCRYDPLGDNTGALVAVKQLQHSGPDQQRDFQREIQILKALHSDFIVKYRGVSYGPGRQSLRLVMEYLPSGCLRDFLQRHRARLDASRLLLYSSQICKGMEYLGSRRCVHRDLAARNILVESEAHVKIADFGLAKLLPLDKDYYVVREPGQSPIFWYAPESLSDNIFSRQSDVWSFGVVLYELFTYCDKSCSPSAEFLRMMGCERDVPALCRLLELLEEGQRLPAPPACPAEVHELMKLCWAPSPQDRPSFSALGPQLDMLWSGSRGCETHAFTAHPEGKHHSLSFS

EGFR = EGFR (Homo sapiens, UniProt P00533); experiment: Inhibition of a panel of kinases, in vitro HotSpot kinase assay: EGFR; settings: E compounds, Table 17
Sequence of EGFR (P00533 25-1210): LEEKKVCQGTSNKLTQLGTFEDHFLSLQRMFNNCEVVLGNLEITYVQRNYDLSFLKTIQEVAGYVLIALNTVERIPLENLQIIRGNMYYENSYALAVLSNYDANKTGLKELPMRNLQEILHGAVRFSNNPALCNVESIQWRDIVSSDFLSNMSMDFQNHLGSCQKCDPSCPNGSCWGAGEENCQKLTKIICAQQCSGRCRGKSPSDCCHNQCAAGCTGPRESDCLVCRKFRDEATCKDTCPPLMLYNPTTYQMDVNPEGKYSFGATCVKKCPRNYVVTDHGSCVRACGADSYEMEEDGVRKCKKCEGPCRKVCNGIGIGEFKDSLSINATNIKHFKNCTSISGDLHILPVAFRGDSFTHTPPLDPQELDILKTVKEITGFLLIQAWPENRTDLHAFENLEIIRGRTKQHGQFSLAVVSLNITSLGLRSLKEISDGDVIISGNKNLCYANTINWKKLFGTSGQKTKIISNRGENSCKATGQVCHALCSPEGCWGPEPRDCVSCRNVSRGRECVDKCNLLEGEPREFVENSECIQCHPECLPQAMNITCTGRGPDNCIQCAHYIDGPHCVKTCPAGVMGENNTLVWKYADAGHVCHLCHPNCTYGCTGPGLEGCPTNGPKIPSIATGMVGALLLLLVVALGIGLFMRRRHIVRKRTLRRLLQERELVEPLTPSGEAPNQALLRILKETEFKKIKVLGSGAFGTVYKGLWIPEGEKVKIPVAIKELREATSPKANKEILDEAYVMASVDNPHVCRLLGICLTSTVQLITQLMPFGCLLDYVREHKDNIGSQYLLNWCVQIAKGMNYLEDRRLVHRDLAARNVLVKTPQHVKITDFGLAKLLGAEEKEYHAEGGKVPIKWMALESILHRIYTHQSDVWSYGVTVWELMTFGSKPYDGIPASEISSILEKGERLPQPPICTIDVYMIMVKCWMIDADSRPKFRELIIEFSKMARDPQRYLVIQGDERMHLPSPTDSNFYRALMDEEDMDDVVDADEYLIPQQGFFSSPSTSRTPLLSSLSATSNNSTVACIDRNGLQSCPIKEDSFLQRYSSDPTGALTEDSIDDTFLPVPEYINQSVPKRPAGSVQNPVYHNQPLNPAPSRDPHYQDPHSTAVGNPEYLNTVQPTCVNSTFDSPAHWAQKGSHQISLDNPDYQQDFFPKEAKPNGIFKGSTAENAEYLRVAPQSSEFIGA
Protocol: as §1

BTK-WT = target: T2, BTK-WT (Homo sapiens, UniProt Q06187); experiment: Btk in vitro inhibitory activity (one of Method A TR-FRET, Method B electrophoretic mobility shift, Method C radiometric filter binding); settings: E compounds, Table 17; read-out: IC50 BTK-WT
T2 construct: purified from insect cells as a full-length construct containing an N-terminal 6X-His tag; His6 (N); made in house; host or cells: insect cells (baculovirus Sf21 in Method B)
T2 sequence (Q06187 whole entry): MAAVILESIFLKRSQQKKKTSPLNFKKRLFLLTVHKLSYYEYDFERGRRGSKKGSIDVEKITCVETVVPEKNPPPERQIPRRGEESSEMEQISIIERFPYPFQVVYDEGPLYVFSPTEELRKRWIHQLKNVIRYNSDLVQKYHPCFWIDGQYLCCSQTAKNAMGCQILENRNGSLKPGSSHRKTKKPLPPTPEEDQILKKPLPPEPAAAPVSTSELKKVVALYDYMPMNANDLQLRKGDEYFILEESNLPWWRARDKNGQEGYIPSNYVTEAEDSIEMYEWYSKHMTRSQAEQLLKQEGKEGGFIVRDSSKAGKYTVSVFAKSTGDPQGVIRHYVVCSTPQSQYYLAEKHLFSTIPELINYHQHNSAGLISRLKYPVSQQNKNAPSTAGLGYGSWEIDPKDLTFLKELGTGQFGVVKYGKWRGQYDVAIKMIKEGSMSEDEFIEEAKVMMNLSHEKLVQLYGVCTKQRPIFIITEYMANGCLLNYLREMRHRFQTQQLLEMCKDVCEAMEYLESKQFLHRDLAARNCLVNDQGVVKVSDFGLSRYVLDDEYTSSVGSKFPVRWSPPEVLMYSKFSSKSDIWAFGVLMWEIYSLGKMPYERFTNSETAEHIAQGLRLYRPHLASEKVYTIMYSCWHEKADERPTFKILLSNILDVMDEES

LCK = LCK (Homo sapiens, UniProt P06239); experiment: Inhibition of a panel of kinases, in vitro HotSpot kinase assay: LCK; settings: E compounds, Table 17; read-out: IC50 LCK
Sequence of LCK (P06239 whole entry): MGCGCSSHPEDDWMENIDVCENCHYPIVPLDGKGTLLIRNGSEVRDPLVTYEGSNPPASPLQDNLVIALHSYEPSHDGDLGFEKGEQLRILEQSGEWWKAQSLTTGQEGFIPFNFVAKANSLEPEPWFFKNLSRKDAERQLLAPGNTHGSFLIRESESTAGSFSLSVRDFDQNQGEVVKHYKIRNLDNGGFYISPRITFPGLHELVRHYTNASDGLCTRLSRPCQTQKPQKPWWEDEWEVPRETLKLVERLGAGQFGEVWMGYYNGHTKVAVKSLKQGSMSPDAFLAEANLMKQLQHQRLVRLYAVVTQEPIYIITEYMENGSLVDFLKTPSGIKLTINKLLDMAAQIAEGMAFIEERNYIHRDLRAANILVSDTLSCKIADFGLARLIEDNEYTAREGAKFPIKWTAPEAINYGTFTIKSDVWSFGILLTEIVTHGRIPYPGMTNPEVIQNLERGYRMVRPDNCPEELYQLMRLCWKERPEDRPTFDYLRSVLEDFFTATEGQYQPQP

Sequence of SRC (P12931 whole entry): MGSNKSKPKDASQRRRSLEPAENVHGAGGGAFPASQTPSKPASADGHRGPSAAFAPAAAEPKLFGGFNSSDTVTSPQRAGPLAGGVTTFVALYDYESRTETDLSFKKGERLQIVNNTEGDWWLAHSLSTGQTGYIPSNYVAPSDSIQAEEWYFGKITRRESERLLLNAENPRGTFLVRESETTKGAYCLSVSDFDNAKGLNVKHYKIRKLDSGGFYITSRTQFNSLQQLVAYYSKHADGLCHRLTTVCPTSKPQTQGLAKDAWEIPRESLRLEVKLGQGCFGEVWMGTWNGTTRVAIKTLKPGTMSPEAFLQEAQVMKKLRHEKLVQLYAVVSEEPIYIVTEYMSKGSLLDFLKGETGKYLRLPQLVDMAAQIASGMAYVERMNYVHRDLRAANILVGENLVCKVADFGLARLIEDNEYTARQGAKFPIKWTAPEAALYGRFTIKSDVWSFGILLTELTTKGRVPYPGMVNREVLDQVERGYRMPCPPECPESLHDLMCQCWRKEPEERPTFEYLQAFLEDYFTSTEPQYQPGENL

Row | SMILES | IC50 (SRC) | IC50 (JAK3) | IC50 (EGFR) | IC50 (BTK-WT) | IC50 (LCK)
1 | C=CC(=O)N1CC[C@@H](N(C)c2nnc(C(N)=O)c(Nc3ccc(C(C)C)cc3)n2)C1 [Example E-26, (R)-3-((1-acryloylpyrrolidin-3-yl)(methyl)amino)-5-(4-isopropylphenylamino)-1,2,4-triazine-6-carboxamide] | 0.01 to 0.1 µM | < 0.01 µM | ≤ 0.01 µM | ≤ 0.01 µM | 1 to 10 µM
2 | C=CC(=O)N1CCC[C@@H](Nc2nnc(C(N)=O)c(Nc3ccc(-c4ncco4)cc3)n2)C1 [Example E-40, (R)-3-(1-acryloylpiperidin-3-ylamino)-5-(4-(oxazol-2-yl)phenylamino)-1,2,4-triazine-6-carboxamide] | 0.1 to 1 µM | < 0.01 µM | ≤ 0.01 µM | ≤ 0.01 µM | 0.1 to 1 µM
3 | C=CC(=O)N1CCC[C@@H](Nc2nnc(C(N)=O)c(Nc3ccc(-c4ncccn4)cc3)n2)C1 [Example E-41, (R)-3-(1-acryloylpiperidin-3-ylamino)-5-(4-(pyrimidin-2-yl)phenylamino)-1,2,4-triazine-6-carboxamide] | 0.1 to 1 µM | < 0.01 µM | 0.01 to 0.1 µM | ≤ 0.01 µM | 0.1 to 1 µM
4 | C=CC(=O)N1CCC[C@@H](Nc2nnc(C(N)=O)c(Nc3ccc(C4CCN(C(=O)CC)CC4)cc3)n2)C1 [Example E-45, (R)-3-(1-acryloylpiperidin-3-ylamino)-5-(4-(1-propionylpiperidin-4-yl)phenylamino)-1,2,4-triazine-6-carboxamide] | 0.01 to 0.1 µM | < 0.01 µM | ≤ 0.01 µM | ≤ 0.01 µM | 0.01 to 0.1 µM
5 | C=CC(=O)N[C@@H]1CCCN(c2cnc(C(N)=O)c(Nc3ccc(C4CCN(C5CC5)CC4)cc3)n2)[C@@H]1C [Example E-93, 5-((2R,3R)-3-acrylamido-2-methylpiperidin-1-yl)-3-(4-(1-cyclopropylpiperidin-4-yl)phenylamino)pyrazine-2-carboxamide] | ≤ 0.01 µM | < 0.01 µM | 0.01 to 0.1 µM | ≤ 0.01 µM | 0.01 to 0.1 µM
6 | C=CC(=O)N[C@@H]1CCCN(c2cnc(C(N)=O)c(Nc3cc(C)ns3)n2)[C@@H]1C [Example E-97, 5-((2R,3R)-3-acrylamido-2-methylpiperidin-1-yl)-3-(3-methylisothiazol-5-ylamino)pyrazine-2-carboxamide] | ≤ 0.01 µM | < 0.01 µM | 0.01 to 0.1 µM | ≤ 0.01 µM | 0.1 to 1 µM
7 | C=CC(=O)N1CCC[C@@H](N(C)c2cnc(C(N)=O)c(Nc3ccc(C4(C)CCN(C5CCCC5)CC4)cc3)n2)C1 [Example E-103, (R)-5-((1-acryloylpiperidin-3-yl)(methyl)amino)-3-(4-(1-cyclopentyl-4-methylpiperidin-4-yl)phenylamino)pyrazine-2-carboxamide] | ≤ 0.01 µM | < 0.01 µM | ≤ 0.01 µM | ≤ 0.01 µM | < 0.01 µM
8 | C=CC(=O)N1CC[C@@H](N(C)c2cnc(C(N)=O)c(Nc3ccc(C4CCN(C5CCCC5)CC4)cc3)n2)C1 [Example E-109, (R)-5-((1-acryloylpyrrolidin-3-yl)(methyl)amino)-3-(4-(1-cyclopentylpiperidin-4-yl)phenylamino)pyrazine-2-carboxamide] | 0.01 to 0.1 µM | < 0.01 µM | 0.01 to 0.1 µM | ≤ 0.01 µM | 0.1 to 1 µM
9 | C=CC(=O)N1CC[C@@H](N(C)c2cnc(C(N)=O)c(Nc3cnn(CCOC)c3)n2)C1 [Example E-110, (R)-5-((1-acryloylpyrrolidin-3-yl)(methyl)amino)-3-(1-(2-methoxyethyl)-1H-pyrazol-4-ylamino)pyrazine-2-carboxamide] | 0.1 to 1 µM | < 0.01 µM | 0.1 to 1 µM | ≤ 0.01 µM | 1 to 10 µM
10 | C=CC(=O)N1CC[C@@H](N(C)c2cnc(C(N)=O)c(Nc3ccc(C4CCN(C5CC5)CC4)cc3)n2)C1 [Example E-121, (R)-5-((1-acryloylpyrrolidin-3-yl)(methyl)amino)-3-(4-(1-cyclopropylpiperidin-4-yl)phenylamino)pyrazine-2-carboxamide] | 0.01 to 0.1 µM | < 0.01 µM | ≤ 0.01 µM | ≤ 0.01 µM | 0.01 to 0.1 µM
11 | C=CC(=O)N1CCC[C@@H](N(C)c2cnc(C(N)=O)c(Nc3ccc(C4CCN(C5CCCC5)CC4)cc3)n2)C1 [Example E-125, (R)-5-((1-acryloylpiperidin-3-yl)(methyl)amino)-3-(4-(1-cyclopentylpiperidin-4-yl)phenylamino)pyrazine-2-carboxamide] | ≤ 0.01 µM | < 0.01 µM | 0.01 to 0.1 µM | ≤ 0.01 µM | 0.01 to 0.1 µM
12 | C[C@@H]1[C@H](NC(=O)c2ccc(C3CC3)cc2)CCCN1c1cnc(C(N)=O)c(Nc2ccc(OC3CCN(C)C3)cc2)n1 (stereo partly drawn) [Example E-136, 5-((2R,3R)-3-(4-cyclopropylbenzamido)-2-methylpiperidin-1-yl)-3-((4-((1-methylpyrrolidin-3-yl)oxy)phenyl)amino) pyrazine-2-carboxamide] | 0.01 to 0.1 µM | 0.1 to 1 µM | 0.1 to 1 µM | ≤ 0.01 µM | 0.01 to 0.1 µM
13 | C[C@@H]1[C@H](NC(=O)c2ccc(C3CC3)cc2)CCCN1c1cnc(C(N)=O)c(Nc2ccc(N3CCN(C4CCCC4)C[C@@H]3C)cc2)n1 [Example E-137, 3-((4-((S)-4-cyclopentyl-2-methylpiperazin-1-yl)phenyl)amino)-5-((2R,3R)-3-(4-cyclopropylbenzamido)-2-methyipiperidin-1-yl)pyrazine-2-carboxamide] | 0.01 to 0.1 µM | 1 to 10 µM | 1 to 10 µM | ≤ 0.01 µM | 0.01 to 0.1 µM
14 | C[C@@H]1[C@H](NC(=O)c2ccc(C(=O)N(C)C)cc2)CCCN1c1cnc(C(N)=O)c(Nc2cnn(C)c2)n1 [Example E-138, N1-((2R,3R)-1-(5-carbamoyl-6-((1-methyl-1H-pyrazol-4-yl)amino)pyrazin-2-yl)-2-methylpiperidin-3-yl)-N4,N4-dimethylterephthalamide] | 0.01 to 0.1 µM | 0.1 to 1 µM | 0.1 to 1 µM | ≤ 0.01 µM | 0.1 to 1 µM
15 | C[C@@H]1[C@H](NC(=O)c2ccc3oc(C4CC4)nc3c2)CCCN1c1cnc(C(N)=O)c(Nc2cnn(C)c2)n1 [Example E-139, N-((2R,3R)-1-(5-carbamoyl-6-((1-methyl-1H-pyrazol-4-yl)amino)pyrazin-2-yl)-2-methylpiperidin-3-yl)-2-cyclopropylbenzo[d] oxazole-5-carboxamide] | 0.01 to 0.1 µM | 0.1 to 1 µM | 0.1 to 1 µM | ≤ 0.01 µM | 0.01 to 0.1 µM
16 | C[C@@H]1CCN(c2cnc(C(N)=O)c(Nc3cnn(C)c3)n2)C[C@@H]1NC(=O)c1ccc(C2CC2)cc1 [Example E-140, 5-((3R,4R)-3-(4-cyclopropylbenzamido)-4-methylpiperidin-1-yl)-3-((1-methyl-1H-pyrazol-4-yl)amino)pyrazine-2-carboxamide] | > 10 µM | > 10 µM | > 10 µM | 0.1 to 1 µM | 1 to 10 µM
17 | Cn1cc(Nc2nc(N3CCC4CCN(C(=O)c5ccc(C6CC6)cc5)C4C3)cnc2C(N)=O)cn1 (stereo not shown) [Example E-141, 5-(1-(4-cyclopropylbenzoyl)octahydro-6H-pyrrolo[2,3-c]pyridin-6-yl)-3-((1-methyl-3H-pyrazol-4-yl)amino)pyrazine-2-carboxamide] | 0.1 to 1 µM | 1 to 10 µM | 0.1 to 1 µM | 0.1 to 1 µM | 0.1 to 1 µM
